Laboratory results taken from BindingDB's records for doi:10.1021/jm0305523 (Merck Research Laboratories, 2004).

Molecular target: T1, Caspase-3 (Homo sapiens, UniProt P42574)
T1 sequence (P42574 whole entry): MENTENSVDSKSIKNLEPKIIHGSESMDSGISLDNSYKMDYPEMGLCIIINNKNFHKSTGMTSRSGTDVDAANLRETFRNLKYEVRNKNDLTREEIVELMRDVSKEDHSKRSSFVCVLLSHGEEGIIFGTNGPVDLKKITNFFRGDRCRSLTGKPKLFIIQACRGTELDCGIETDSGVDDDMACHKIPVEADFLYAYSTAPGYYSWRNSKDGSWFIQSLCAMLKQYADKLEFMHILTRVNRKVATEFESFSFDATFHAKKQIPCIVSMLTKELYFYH
Assay: Caspase Inhibition Assay
Settings: pH 7; 37 °C

IC50: 3 nM
SMILES: CC(=O)N[C@@H](CC(=O)O)C(=O)N[C@H]1CCc2cccc3c2N(C1=O)[C@H](C(=O)N[C@@H](CC(=O)O)C(=O)CSCc1ccccc1)C3 [(3S)-5-(benzylsulfanyl)-3-{[(2S,11S)-11-[(3S)-3-acetamido-3-formamidopropanoic acid]-12-oxo-1-azatricyclo[6.4.1.0^{4,13}]trideca-4(13),5,7-trien-2-yl]formamido}-4-oxopentanoic acid]
